Numbered stars: 1 amine (or outer) side, 2 acyl side, 3 side chain; on linkers, the order of the positions; unused ones are H or OH. Peptide text beside a SMILES is read from it. * marks the point of attachment. C20 diacid = O=C(O)CCCCCCCCCCCCCCCCCCC(=O)*; γGlu = O=C(O)[C@H](CCC(=O)[*:2])N[*:1]
Tests used:
[1] = Solubility in 100 mM bistrispropane buffer at pH 7.5 incubated for 18 hrs by UPLC analysis; assay type: physicochemical
[2] = biological target: T1, Amylin receptor AMY3; CALCR/RAMP3 (Homo sapiens, UniProt O60896+P30988); assay: Agonist activity at human amylin receptor expressed in BHK570 cells co-expressing RAMP3 assessed as increase in intracellular cAMP concentration incubated for 3 hrs in absence of albumin by CRE luciferase reporter gene assay; assay type: functional, cell-based
T1 sequence (P30988 whole entry): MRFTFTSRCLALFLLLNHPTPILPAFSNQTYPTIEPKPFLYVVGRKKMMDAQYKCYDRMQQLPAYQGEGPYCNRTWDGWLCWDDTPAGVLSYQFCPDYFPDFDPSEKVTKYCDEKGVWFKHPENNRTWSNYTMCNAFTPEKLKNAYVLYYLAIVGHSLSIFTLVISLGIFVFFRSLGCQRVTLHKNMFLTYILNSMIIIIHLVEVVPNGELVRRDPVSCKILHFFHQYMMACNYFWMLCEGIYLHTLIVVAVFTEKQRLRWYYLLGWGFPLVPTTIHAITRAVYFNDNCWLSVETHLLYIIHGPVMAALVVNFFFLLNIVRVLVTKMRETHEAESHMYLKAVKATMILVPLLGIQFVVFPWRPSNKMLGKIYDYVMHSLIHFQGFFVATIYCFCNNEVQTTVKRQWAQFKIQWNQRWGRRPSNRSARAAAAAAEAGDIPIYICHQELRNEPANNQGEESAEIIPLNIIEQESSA
T1 sequence (O60896 whole entry): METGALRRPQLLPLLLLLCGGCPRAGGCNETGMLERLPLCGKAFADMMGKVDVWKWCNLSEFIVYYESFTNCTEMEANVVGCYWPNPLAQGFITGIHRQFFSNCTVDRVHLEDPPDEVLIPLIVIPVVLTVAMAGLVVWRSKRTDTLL

[3] = Solubility in 100 mM bistrispropane buffer at pH 6.5 incubated for 18 hrs by UPLC analysis; assay type: physicochemical
[4] = Stability in pH 7.5 buffer assessed as lag time for fibril formation at 1 uM by Thioflavin T based fluorescence assay; assay type: physicochemical; settings: pH 7.5, 1 µM
[5] = Solubility in 100 mM glycylglycine buffer at pH 3.0 incubated for 18 hrs by UPLC analysis; assay type: physicochemical
[6] = Solubility in 100 mM bistrispropane buffer at pH 7.0 incubated for 18 hrs by UPLC analysis; assay type: physicochemical
Rattus norvegicus [7] = assay: Reduction in food intake in Sprague-Dawley rat at 3 nmol/kg measured 24 to 48 hrs post dose relative to control; assay type: functional; design: scale not given: the % may be the effect or the level left
[8] = Solubility in 100 mM glycylglycine buffer at pH 4.0 incubated for 18 hrs by UPLC analysis; assay type: physicochemical
[9] = biological target: T1, Amylin receptor AMY3; CALCR/RAMP3; assay: Agonist activity at human amylin receptor expressed in BHK570 cells co-expressing RAMP3 assessed as increase in intracellular cAMP concentration incubated for 3 hrs in presence of 10% FBS by CRE luciferase reporter gene assay; assay type: functional, cell-based
Calcitonin receptor [10] = biological target: T2, Calcitonin receptor (Homo sapiens, UniProt P30988); assay: Agonist activity at human calcitonin receptor expressed in BHK570 cells assessed as increase in intracellular cAMP concentration incubated for 3 hrs in absence of albumin by CRE luciferase reporter gene assay; assay type: functional, cell-based
T2 sequence (P30988 whole entry): T1 sequence (P30988 whole entry)

[11] = Solubility in 100 mM bistrispropane buffer at pH 6.0 incubated for 18 hrs by UPLC analysis; assay type: physicochemical
Calcitonin receptor [12] = biological target: T2, Calcitonin receptor; assay: Agonist activity at human calcitonin receptor expressed in BHK570 cells assessed as increase in intracellular cAMP concentration incubated for 3 hrs in presence of 10% FBS by CRE luciferase reporter gene assay; assay type: functional, cell-based
Rattus norvegicus [13] = assay: Reduction in food intake in Sprague-Dawley rat at 3 nmol/kg measured 0 to 24 hrs post dose relative to control; assay type: functional; design: scale not given: the % may be the effect or the level left
[14] = Solubility in 100 mM bistrispropane buffer at pH 8.0 incubated for 18 hrs by UPLC analysis; assay type: physicochemical
[15] = Stability in pH 7.5 buffer assessed as compound recovery at 1 uM by Thioflavin T based fluorescence assay; assay type: physicochemical; settings: read-out: Drug recovery

Row | Compound | solubility at 18 h [1] | EC50 [2] | solubility at 18 h [3] | Time [4] | solubility at 18 h [5] | solubility at 18 h [6] | Activity (Rattus norvegicus [7]) | solubility at 18 h [8] | EC50 [9] | EC50 (Calcitonin receptor [10]) | solubility at 18 h [11] | EC50 (Calcitonin receptor [12]) | Activity (Rattus norvegicus [13]) | solubility at 18 h [14] | remaining at 1 µM [15]
1 | CC(C)C[C@H](NC(=O)[C@H](C)NC(=O)[C@H](C)NC(=O)[C@@H](NC(=O)[C@H](CO)NC(=O)[C@H](CC(C)C)NC(=O)[C@H](CCC(=O)O)NC(=O)[C@H](CO)NC(=O)[C@H](C)NC(=O)CC[C@H](NC(=O)CCCCCCCCCCCCCCCCCCC(=O)O)C(=O)O)[C@@H](C)O)C(=O)NCC(=O)N[C@@H](CCCNC(=N)N)C(=O)N[C@@H](CC(C)C)C(=O)N[C@@H](CO)C(=O)N[C@@H](C)C(=O)N[C@@H](CCC(=O)O)C(=O)N[C@@H](CC(C)C)C(=O)N[C@@H](Cc1cnc[nH]1)C(=O)N[C@@H](CCC(=O)O)C(=O)N[C@@H](CC(C)C)C(=O)N[C@@H](C)C(=O)N[C@H](C(=O)N[C@@H](Cc1ccc(O)cc1)C(=O)N1CCC[C@H]1C(=O)N[C@@H](CCCNC(=N)N)C(=O)N[C@H](C(=O)N[C@@H](CCC(=O)O)C(=O)N[C@H](C(=O)NCC(=O)N[C@@H](CO)C(=O)NCC(=O)N[C@@H](CO)C(=O)N[C@@H](Cc1ccc(O)cc1)C(N)=O)[C@@H](C)O)[C@@H](C)O)[C@@H](C)O ({C20 diacid-γGlu}-ASELSTAALGRLSAELHELATYPRTETGSGSY-NH2) | ≥ 200 µM | 0.032 nM | ≥ 200 µM | > 45 h | ≥ 200 µM | ≥ 200 µM | 56% | ≥ 200 µM | 0.093 nM | 0.029 nM | ≥ 200 µM | 0.071 nM | 49% | ≥ 200 µM | 100%
2 | CC(C)C[C@H](NC(=O)CNC(=O)[C@H](CO)NC(=O)[C@H](C)NC(=O)CC[C@H](NC(=O)CCCCCCCCCCCCCCCCCCC(=O)O)C(=O)O)C(=O)N[C@@H](CO)C(=O)N[C@H](C(=O)N[C@@H](C)C(=O)N[C@@H](C)C(=O)N[C@@H](CC(C)C)C(=O)NCC(=O)N[C@@H](CCCNC(=N)N)C(=O)N[C@@H](CC(C)C)C(=O)N[C@@H](CO)C(=O)N[C@@H](CCC(N)=O)C(=O)N[C@@H](CCC(=O)O)C(=O)N[C@@H](CC(C)C)C(=O)N[C@@H](Cc1cnc[nH]1)C(=O)N[C@@H](CCC(=O)O)C(=O)N[C@@H](CC(C)C)C(=O)N[C@@H](CCC(=O)O)C(=O)N[C@H](C(=O)N[C@@H](Cc1ccc(O)cc1)C(=O)N1CCC[C@H]1C(=O)N[C@@H](CCCNC(=N)N)C(=O)N[C@H](C(=O)N[C@@H](CCC(=O)O)C(=O)N[C@H](C(=O)NCC(=O)N[C@@H](CO)C(=O)NCC(=O)N[C@H](C(=O)N[C@@H](Cc1ccc(O)cc1)C(N)=O)[C@@H](C)O)[C@@H](C)O)[C@@H](C)O)[C@@H](C)O)[C@@H](C)O ({C20 diacid-γGlu}-ASGLSTAALGRLSQELHELETYPRTETGSGTY-NH2) | ≥ 200 µM |  | ≥ 200 µM | > 45 h | ≥ 200 µM | ≥ 200 µM | 26% | ≥ 200 µM | 0.15 nM |  | ≥ 200 µM | 0.068 nM | 27% | ≥ 200 µM | 100%
3 | CC(C)C[C@H](NC(=O)CNC(=O)[C@H](CO)NC(=O)[C@H](C)NC(=O)CC[C@H](NC(=O)CCCCCCCCCCCCCCCCCCC(=O)O)C(=O)O)C(=O)N[C@@H](CO)C(=O)N[C@H](C(=O)N[C@@H](C)C(=O)N[C@H](C(=O)N[C@@H](CC(C)C)C(=O)NCC(=O)N[C@@H](CCCNC(=N)N)C(=O)N[C@@H](CC(C)C)C(=O)N[C@@H](CO)C(=O)N[C@@H](C)C(=O)N[C@@H](CCC(=O)O)C(=O)N[C@@H](CC(C)C)C(=O)N[C@@H](Cc1cnc[nH]1)C(=O)N[C@@H](CCC(=O)O)C(=O)N[C@@H](CC(C)C)C(=O)N[C@@H](C)C(=O)N[C@H](C(=O)N[C@@H](Cc1ccc(O)cc1)C(=O)N1CCC[C@H]1C(=O)N[C@@H](CCCNC(=N)N)C(=O)N[C@H](C(=O)N[C@@H](CCC(=O)O)C(=O)N[C@H](C(=O)NCC(=O)N[C@@H](CO)C(=O)NCC(=O)N[C@H](C(=O)N[C@@H](Cc1ccc(O)cc1)C(N)=O)[C@@H](C)O)[C@@H](C)O)[C@@H](C)O)[C@@H](C)O)C(C)C)[C@@H](C)O ({C20 diacid-γGlu}-ASGLSTAVLGRLSAELHELATYPRTETGSGTY-NH2) | ≥ 200 µM |  | ≥ 200 µM | > 45 h | ≥ 200 µM | ≥ 200 µM | 28% | ≥ 200 µM | 0.122 nM | 0.07 nM | ≥ 200 µM | 0.053 nM | 26% | ≥ 200 µM | 100%
4 | CC(C)C[C@H](NC(=O)CNC(=O)[C@H](CO)NC(=O)[C@H](C)NC(=O)CC[C@H](NC(=O)CCCCCCCCCCCCCCCCCCC(=O)O)C(=O)O)C(=O)N[C@@H](CO)C(=O)N[C@H](C(=O)N[C@@H](C)C(=O)N[C@H](C(=O)N[C@@H](CC(C)C)C(=O)NCC(=O)N[C@@H](CCCNC(=N)N)C(=O)N[C@@H](CC(C)C)C(=O)N[C@@H](CO)C(=O)N[C@@H](CCC(N)=O)C(=O)N[C@@H](CCC(=O)O)C(=O)N[C@@H](CC(C)C)C(=O)N[C@@H](Cc1cnc[nH]1)C(=O)N[C@@H](CCC(=O)O)C(=O)N[C@@H](CC(C)C)C(=O)N[C@@H](CCC(N)=O)C(=O)N[C@H](C(=O)N[C@@H](CC(C)C)C(=O)N[C@@H](CCC(N)=O)C(=O)N[C@H](C(=O)N[C@@H](Cc1ccc(O)cc1)C(=O)N1CCC[C@H]1C(=O)N[C@@H](CCCNC(=N)N)C(=O)N[C@H](C(=O)N[C@@H](CCC(=O)O)C(=O)N[C@H](C(=O)NCC(=O)N[C@@H](CO)C(=O)N[C@@H](CCC(N)=O)C(=O)N[C@H](C(=O)N[C@@H](Cc1ccc(O)cc1)C(N)=O)[C@@H](C)O)[C@@H](C)O)[C@@H](C)O)[C@@H](C)O)[C@@H](C)O)C(C)C)[C@@H](C)O ({C20 diacid-γGlu}-ASGLSTAVLGRLSQELHELQTLQTYPRTETGSQTY-NH2) | ≥ 200 µM | 0.054 nM | ≥ 200 µM | 8 h | ≥ 200 µM | ≥ 200 µM | 10% |  | 0.185 nM | 0.045 nM | ≥ 200 µM | 0.099 nM | 25% | ≥ 200 µM | 2%
5 | CC(C)C[C@H](NC(=O)CC[C@H](NC(=O)CCCCCCCCCCCCCCCCCCC(=O)O)C(=O)O)C(=O)N[C@@H](CO)C(=O)NCC(=O)N[C@@H](CC(C)C)C(=O)N[C@@H](CO)C(=O)N[C@H](C(=O)N[C@@H](C)C(=O)N[C@H](C(=O)N[C@@H](CC(C)C)C(=O)NCC(=O)N[C@@H](CCCNC(=N)N)C(=O)N[C@@H](CC(C)C)C(=O)N[C@@H](CO)C(=O)N[C@@H](CCC(N)=O)C(=O)N[C@@H](CCC(=O)O)C(=O)N[C@@H](CC(C)C)C(=O)N[C@@H](Cc1cnc[nH]1)C(=O)N[C@@H](CCC(=O)O)C(=O)N[C@@H](CC(C)C)C(=O)N[C@@H](CCC(N)=O)C(=O)N[C@H](C(=O)N[C@@H](Cc1ccc(O)cc1)C(=O)N1CCC[C@H]1C(=O)N[C@@H](CCCNC(=N)N)C(=O)N[C@H](C(=O)N[C@@H](CCC(=O)O)C(=O)N[C@H](C(=O)NCC(=O)N[C@@H](CO)C(=O)N[C@@H](CCC(N)=O)C(=O)N[C@H](C(=O)N[C@@H](Cc1ccc(O)cc1)C(N)=O)[C@@H](C)O)[C@@H](C)O)[C@@H](C)O)[C@@H](C)O)C(C)C)[C@@H](C)O ({C20 diacid-γGlu}-LSGLSTAVLGRLSQELHELQTYPRTETGSQTY-NH2) | ≥ 200 µM | 0.031 nM | ≥ 200 µM | > 45 h | ≥ 200 µM | ≥ 200 µM | 21% |  | 0.14 nM |  | ≥ 200 µM | 0.073 nM | 36% | ≥ 200 µM | 100%

— ChEMBL document CHEMBL4420076, “Amylin and calcitonin receptor agonist” (2017)
